US20230115335A1, “PYRAZOLE DERIVATIVES WITH ANTICANCER ACTIVITY” (BOARD OF REGENTS, THE UNIVERSITY OF TEXAS SYSTEM, priority 2021, published 2023)
“Also recorded” adds a separate entry of the source. Where two headings read alike, the source gives them in different places.

What was measured:
CEM cell line = experiment: DNS cytotoxicity assay, CEM; format: cell-based, human
Source text: […] […] After treatment, images were acquired and analyzed to determine percentages of live/dead cells and their cytotoxicity. […] The Hs-27 non-cancerous human foreskin fibroblast cell line was used for comparison purposes.

MDA-MB231 = experiment: DNS cytotoxicity assay, MDA-MB-231; format: cell-based; settings: Homo sapiens
Procedure: (§1) Since the non-adherent (free floating) lymphoma/leukemia cell lines divide faster than the adherent cell lines, they were incubated for a shorter period (48 h) of time with the compound.
(§2) Lymphoma/leukemia cell lines, which grow in suspension, were incubated for 48 h with the compounds. […] After treatment, images were acquired and analyzed to determine percentages of live/dead cells and their cytotoxicity. […] The Hs-27 non-cancerous human foreskin fibroblast cell line was used for comparison purposes.

[1] = DNS cytotoxicity assay, HS-27 non-cancerous fibroblast; format: cell-based; settings: human, Hs-27 non-cancerous foreskin fibroblast cells
Procedure: as §1, §2

RAMOS = experiment: DNS cytotoxicity assay, RAMOS; format: cell-based; settings: Homo sapiens, Lymphoma-Leukemia, 48 hrs
Source text: (§3) Using the high throughput Differential Nuclear Staining (DNS) screening assay (Lema et al., Current Cellular Biochemistry 1, 1-14, 2011) 15 pyrazole compounds were synthesized and screened on the human T-cell Acute Lymphoblastic Leukemia CEM cell line (Tables 1 and 2). […] The compounds were synthesized based on a pyrazole backbone structure previously determined to have potent cytotoxic activity (FIG. 5). Several commercial and non-commercial analogues (see Table 3) have been tested and determined that the ones with highest activity have a similar structure circled in FIG. 5. […] SSK-3 has been tested on a few cancer cell lines (see Table 4) and also found to induce programmed cell death via a variety of biochemical assays. […] Since the non-adherent (free floating) lymphoma/leukemia cell lines divide faster than the adherent cell lines, they were incubated for a shorter period (48 h) of time with the compound.
(§4) SSK-3 has potent cytotoxic activity against a panel of human cancer cell lines. The cytotoxic activity of SSK-3 was examined by the DNS assay (Lema et al., Current Cellular Biochemistry 1, 1-14, 2011). Lymphoma/leukemia cell lines, which grow in suspension, were incubated for 48 h with the compounds. […] After treatment, images were acquired and analyzed to determine percentages of live/dead cells and their cytotoxicity. […]

HL-60 = experiment: DNS cytotoxicity assay, HL-60; format: cell-based; settings: Homo sapiens, Lymphoma-Leukemia, 48 hrs
Source text: as §3, §4

Jurkat = experiment: DNS cytotoxicity assay, Jurkat; format: cell-based, human
Source text: as §3
SSK-3 has potent cytotoxic activity against a panel of human cancer cell lines. The cytotoxic activity of SSK-3 was examined by the DNS assay (Lema et al., Current Cellular Biochemistry 1, 1-14, 2011). Lymphoma/leukemia cell lines, which grow in suspension, were incubated for 48 h with the compounds. Since the adherent cells generally divide at a slower rate than the non-adherent cell lines, the MDA-MB231, HCC1419, T47D, COLO205, PANC-1, A-549 adherent cancer cells lines were incubated for 72 h in the presence of the compounds. After treatment, images were acquired and analyzed to determine percentages of live/dead cells and their cytotoxicity. […] The Hs-27 non-cancerous human foreskin fibroblast cell line was used for comparison purposes.

NALM-6 = experiment: DNS cytotoxicity assay, NALM-6; format: cell-based; settings: Homo sapiens, Lymphoma-Leukemia, 48 hrs
Source text: as §3, §4

K562 = experiment: DNS cytotoxicity assay, K562; format: cell-based; settings: Homo sapiens, Lymphoma-Leukemia, 48 hrs
Source text: as §3, §4

MiNO = experiment: DNS cytotoxicity assay, MiNO; format: cell-based; settings: Homo sapiens, Mantle cell Lymphoma, 48 or 72 hrs
Source text: as §3, §4

Jeko-1 = experiment: DNS cytotoxicity assay, Jeko-1; format: cell-based; settings: Homo sapiens, Mantle cell Lymphoma, 48 or 72 hrs
Source text: as §3, §4

Z138 = experiment: DNS cytotoxicity assay, Z138; format: cell-based; settings: Homo sapiens, Z-138; Mantle cell Lymphoma; 48 or 72 hrs
Source text: as §3, §4

JVM-2 = experiment: DNS cytotoxicity assay, JVM-2; format: cell-based; settings: Homo sapiens, Mantle cell Lymphoma, 48 or 72 hrs
Source text: as §3, §4

JVM-13 = experiment: DNS cytotoxicity assay, JVM-13; format: cell-based; settings: Homo sapiens, JVM13; Mantle cell Lymphoma; 48 or 72 hrs
Source text: as §3, §4

MM.1S = experiment: DNS cytotoxicity assay, MM.1S; format: cell-based; settings: Homo sapiens, MM1.S; Multiple Myeloma; 48 or 72 hrs
Source text: as §3, §4

MM.1R = experiment: DNS cytotoxicity assay, MM.1R; format: cell-based; settings: Homo sapiens, Multiple Myeloma, 48 or 72 hrs
Source text: as §3, §4

U226 = experiment: DNS cytotoxicity assay, U226; format: cell-based; settings: Homo sapiens, Multiple Myeloma, 48 or 72 hrs
Source text: as §3, §4

RPMI-8226 = experiment: DNS cytotoxicity assay, RPMI-8226; format: cell-based; settings: Homo sapiens, Multiple Myeloma, 48 or 72 hrs
Source text: as §3, §4

MDA-468 = experiment: DNS cytotoxicity assay, MDA-468; format: cell-based; settings: Homo sapiens; Breat Cancer; 72 hrs
Source text: as §3, §4

HCC1419 = experiment: DNS cytotoxicity assay, HCC1419; format: cell-based; settings: Homo sapiens, Breat Cancer, 72 hrs
Source text: as §3, §4

T47D = experiment: DNS cytotoxicity assay, T47D; format: cell-based; settings: Homo sapiens, Breat Cancer, 72 hrs
Source text: as §3, §4

PANC-1 = experiment: DNS cytotoxicity assay, PANC-1; format: cell-based; settings: Homo sapiens, Pancreatic cancer, 72 hrs
Source text: as §3, §4

Colo 205 = experiment: DNS cytotoxicity assay, Colo 205; format: cell-based; settings: Homo sapiens, Colon Cancer, 72 hrs
Source text: as §3, §4

CEM cells [2] = experiment: Phosphatidylserine externalization, Annexin V-FITC/PI assay; format: cell-based, human
Procedure: FIG. 1. […] CEM cells were treated at the CC50 and twice (2×) that concentration of SSK-3. Note that PS externalization is an early marker of apoptosis. * Indicates P value less than 0.001.
SSK-3 induces significant phosphatidylserine externalization. To corrobotate whether SSK-3 utilizes apoptosis to induce cell death, we measured phosphatidylserine (PS) externalization in SSK-3-treated CEM cells by using the Annexin V-FITC/PI assay (3, 4).

CEM cells [3] = experiment: Mitochondrial depolarization; format: cell-based, human; settings: CC50 and 2×CC50
Procedure: (§5) FIG. 2A-2C. […] CEM cells were treated at the CC50 and twice (2×) that concentration of SSK-3.
(§6) SSK-3 induces caspase-3 activation. Mitochondrial depolarization is one of the salient features of cell-death induction and this was observed after treatment of CEM cells with SSK-3 (FIG. 2A). […] CEM cells were treated with SSK-3 for 7 h and subsequently stained with the NucView caspase-3 substrate and analyzed via flow cytometry (Gutierrez et al., Cell biology and toxicology 35, 503-19, 2019) (FIG. 2B).

caspase-3 in CEM cells = experiment: Caspase-3 activation, NucView substrate, flow cytometry; format: cell-based, human; settings: 7 h, P<0.05 vs DMSO control
Procedure: as §5, §6

CEM cells [4] = experiment: Generation of Reactive Oxygen Species; format: cell-based, human; settings: CC50 and 2×CC50
[5] = test system: membrane microtubule organization; experiment: Membrane microtubule organization; format: cell-based; settings: 2 hours; vs DMSO control
cell cycle = experiment: Cell cycle arrest; format: cell-based; settings: data not shown
Tubulin = Tubulin polymerization, biochemical assays
HL-60 leukemia cell line = experiment: Apoptosis induction in HL-60; format: cell-based
CEM cells [6] = experiment: Mode of cell death: intrinsic apoptosis pathway; format: cell-based, human
Procedure: as §5
These compounds were tested in mice at a concentration of 160 mg/kg and after 3-4 daily doses, animals tolerated the treatments well. Different cytotoxicity patterns of the compounds against distinct cell lines has been noted, and it is therefore possible that distinct pyrazoles will act on distinct cellular effectors with different modes of action. However, all of the pyrazole compounds so far tested including SSK-3 induce cell death via the intrinsic apoptosis pathway as will be described below.

[7] = DNS cytotoxicity assay, MCF10A; format: cell-based; settings: human, MCF10A non-cancerous cells, 72 hr incubations, read-out: Cell Line CC50 MCF10A*
Procedure: as §1

[8] = Initial Screen, DNS assay, read-out: CEM CC50
[9] = 72 hr incubations, read-out: Cell Line CC50 MDA-MD-231*
[10] = 72 hr incubations, non-cancerous, read-out: Cell Line CC50 HS-27*
[11] = Homo sapiens, CCRF-CEM, Initial Screen, DNS assay, read-out: CEM CC50

Cc1ccc2c(c1)/C(=N/NC(=O)c1n[nH]c3c1CCC3)C(=O)N2 [SSK-3, N-(5-methyl-2-oxoindolin-3ylidene)-1,4,5,6-tetrahydrocyclopenta[c]pyrazole-3-carbohydrazide]
CC50 (CEM cell line; Homo sapiens, CCRF-CEM, 48 h, Table 4, Lymphoma-Leukemia, 48 hrs, read-out: CC50 CEM): 1400 nM
CC50 (CEM cell line; [8]): 1390 ± 680 nM
CC50 (MDA-MB231; Table 4, Breat Cancer, 72 hrs, read-out: CC50 MDA-MB231): 2300 nM
CC50 at 72 h ([1]; Table 4, Normal Fibroblast, 72 hrs, read-out: CC50 HS27): 15400 nM
CC50 (RAMOS): 1650 nM
CC50 (HL-60): 750 nM
times more cytotoxic toward Jurkat than HS27 (Jurkat; CC50 HS27 / CC50 Jurkat): 37 times
CC50 (Jurkat; Homo sapiens, Jurkat, Lymphoma-Leukemia, 48 hrs): 420 nM
CC50 (NALM-6): 2040 nM
CC50 (K562): 2130 nM
CC50 (MiNO): 1070 nM
CC50 (Jeko-1): 1240 nM
CC50 (Z138): 3360 nM
CC50 (JVM-2): 790 nM
CC50 (JVM-13): 790 nM
CC50 (MM.1S): 4610 nM
CC50 (MM.1R): 3880 nM
CC50 (U226): 4440 nM
CC50 (RPMI-8226): 2470 nM
CC50 (MDA-468): 3980 nM
CC50 (HCC1419): > 20000 nM
CC50 (T47D): 3870 nM
CC50 (PANC-1): 1860 nM
CC50 (Colo 205): 2430 nM
PS externalization (CEM cells [2]; CC50 and 2×CC50 (0.24 and 0.48 μM printed), vs solvent control): induces significant PS externalization in a dose-response manner; also recorded: Induction of Phosphatidylserine (PS) externalization
Mitochondrial depolarization (CEM cells [3]): Mitochondrial depolarization was observed
caspase-3 activation (caspase-3 in CEM cells): induced a statistically significant activation of caspase-3; also recorded: Activation of Caspase 3 was detected
Generation of Reactive Oxygen Species (ROS) (CEM cells [4]): led to the generation of Reactive Oxygen Species (ROS)
disruption of membrane microtubule organization [5]: severe disruption of membrane microtubule organization
cell cycle arrest (cell cycle): cause cell cycle arrest and interfere with cellular replication
Tubulin polymerization inhibition (Tubulin): inhibiting tubulin polymerization
induction of apoptosis (HL-60 leukemia cell line): induced apoptosis via mitochondrial depolarization and phosphatidylserine membrane exposure
induction of the intrinsic apoptosis pathway (CEM cells [6]): induces the intrinsic apoptosis pathway

OO [H2O2, reference compound]
percentage of PS externalization (CEM cells [2]; positive control for death): ~78%

O=C(N/N=C1\C(=O)N(CN2CCCCC2)c2ccccc21)c1n[nH]c2c1CCC2 [SSK-6]
CC50 (CEM cell line; Homo sapiens, CCRF-CEM, read-out: CEM CC50): > 10000 nM

O=C(N/N=C/c1cccc2ccccc12)c1n[nH]c2c1CCC2 [P3C.2]
CC50 (MDA-MB231; [9]): 1830 nM
CC50 at 72 h [7]: 530 nM
CC50 at 72 h [1, 10]: 4100 nM

O=C(N/N=C/c1ccc(OCc2cn(Cc3ccc([N+](=O)[O-])cc3)nn2)cc1)c1n[nH]c2c1CCC2 [SSK-15]
CC50 (CEM cell line; [11]): > 10000 nM

O=C(N/N=C/c1cc(Br)cc(Br)c1O)c1n[nH]c2c1CCC2 [P3C.6]
CC50 (MDA-MB231; [9]): 2530 nM
CC50 at 72 h [7]: 5850 nM
CC50 at 72 h [1, 10]: 9940 nM

O=C1Nc2ccc(F)cc2/C1=N/NC(=O)c1n[nH]c2c1CCC2 [SSK-2]
CC50 (CEM cell line; [11]): > 10000 nM

O=C(N/N=C/c1cn(-c2ccccc2)nc1-c1ccc(Cl)cc1)c1n[nH]c2c1CCC2 [SSK-10]
CC50 (CEM cell line; [11]): 7830 ± 130 nM

O=C(N/N=C/c1c(O)ccc2ccccc12)c1n[nH]c2c1CCCC2 [P3C.3]
CC50 (MDA-MB231; [9]): 1610 nM
CC50 at 72 h [7]: 2160 nM
CC50 at 72 h [1, 10]: > 10000 nM

Cc1ccc2c(c1)/C(=N/NC(=O)c1n[nH]c3c1CCC3)C(=O)N2 [SSK-4]
CC50 (CEM cell line; [8]): 5020 ± 780 nM

COc1ccc(-c2nn(-c3ccccc3)cc2/C=N/NC(=O)c2n[nH]c3c2CCC3)cc1 [SSK-11]
CC50 (CEM cell line; [11]): 3140 ± 330 nM
